From paper PMC2713499 (Biochemistry, 2009)

Tested on: PC-3-Bcl-2 prostate cancer cells
Test: In vitro cytotoxicity assay
Assay type: cell-based, Human
Conditions: for cytotoxic effects: up to 100,000 nM, PC-3-Bcl-2, in words; for cytotoxic effects / inhibition of proliferation and viability compared to control: 96 h; for inhibition of proliferation and viability compared to control / % surviving fraction compared to mock: MTT, PC-3-Bcl-2; for % surviving fraction compared to mock: 96 hours

In the case of CC(=O)Nc1nnc(S(N)(=O)=O)s1 [AZM, N-(5-(aminosulfonyl)-1,3,4-thiadiazol-2-yl)-acetamide], the cytotoxic effects is reported as “no cytotoxic effects”.
CCOc1ccc2nc(S(N)(=O)=O)sc2c1 [EZM, 6-ethoxybenzothiazole-2-sulfonamide] was tested, and the cytotoxic effects was “no cytotoxic effects”.
For NS(=O)(=O)c1nnc(NS(=O)(=O)c2ccccc2)s1 [BZM, 1,3,4-Thiadiazole-2-sulfonamide, 5-((phenylsulfonyl)amino)], the cytotoxic effects was “no cytotoxic effects”.
For CC(=O)/N=c1/sc(S(N)(=O)=O)nn1C [MZM, N-(3-methyl-5-sulfamoyl-3H-1,3,4-thiadiazol-2-ylidene)], the “inhibition of proliferation and viability compared to control” value (“inhibition … compared to control” for short) (0.01 mM) was 29%, the “inhibition … compared to control” value (0.1 mM) was 32% and the “% surviving fraction compared to mock” value (0.1 mM) was 68%.
For NS(=O)(=O)c1nnc(-c2ccccc2Cl)s1 [CHL, 5-[o-chlorophenyl]-1,3,4-thiadiazole-2-sulfonamide], the “inhibition … compared to control” value (0.1 mM) was 57% and the “% surviving fraction compared to mock” value (0.1 mM) was 43%.
